Data taken from the RepoRT retention time repository (doi:10.1021/acs.analchem.2c02893).

Assay: RP, Thermo Scientific Acclaim RSLC 120 C18, 100 × 2.1 mm, 2.2 µm, 30 °C, 0.2 mL/min, estimated dead time 1.1 min; A: 90% water + 10% methanol + 0.01% formic acid + 5 mM ammonium formate, pH 3.61; B: methanol + 0.01% formic acid + 5 mM ammonium formate, pH 3.61; gradient (min/%B) 0/1 1/1 2/39 13/99.9 15/99.9 15.1/1 20.1/1
Conditions: stereoisomer not certain

LC retention time | SMILES
9.44 min | CCCCC1=NC2(CCCC2)C(=O)N1Cc1ccc(-c2ccccc2-c2nn[nH]n2)cc1 [Irbesartan]
2.64 min | CCCNC1CCc2nc(N)sc2C1 (centres undefined) [Pramipexole]
4.73 min | CCC(CC)OC1C=C(C(=O)O)CC(N)C1NC(C)=O (centres undefined) [Oseltamivir-carboxylate]
9.61 min | COC(=O)C1=C(C)NC(C)=C(C(=O)OC(C)C)C1c1cccc2nonc12 (centres undefined) [Isradipine]
8.94 min | CNC1CCC(c2ccc(Cl)c(Cl)c2)c2ccccc21 (centres undefined) [Sertraline]
8.79 min | COc1c(C)c2c(c(O)c1CC=C(C)CCC(=O)O)C(=O)OC2 [Mycophenolic acid]
8.54 min | CC(NCCC(c1ccccc1)c1ccccc1)c1ccccc1 (centres undefined) [Fendiline]
8.05 min | COC1=CC(=O)CC(C)C12Oc1c(Cl)c(OC)cc(OC)c1C2=O (centres undefined) [Griseofulvin]
6.09 min | O=C(O)CCC(=O)c1ccc(F)cc1 [4-Fluorobenzoylpropionic acid]
4.38 min | COc1ccc(NS(=O)(=O)c2ccc(N)cc2)nn1 [Sulfamethoxypyridazine]
4.2 min | Cc1[nH]c(C)c(Cl)c(=O)c1Cl [Clopidol]
4.59 min | CCN(CC)CC(=O)Nc1c(C)cccc1C(=O)OC [Tolycaine]
7.15 min | CCOC(=O)c1ccc(O)cc1 [Ethylparaben]
10.8 min | C#CC1(OC(C)=O)CCC2C3CCC4=CC(=O)CCC4C3CCC21C (centres undefined) [Norethisterone acetate]
4.09 min | NC(C(=O)NC1C(=O)N2C(C(=O)O)=C(Cl)CSC12)c1ccccc1 (centres undefined) [Cefaclor]
9.95 min | CCc1nn(CCCN2CCN(c3cccc(Cl)c3)CC2)c(=O)n1CCOc1ccccc1 [Nefazodone]
6.53 min | Cln1nnc2ccccc21 [Benzotriazole-chloro]
10.2 min | CCCc1nn(C)c2c(=O)[nH]c(-c3cc(C(=O)CCl)ccc3OCC)nc12 [Chlorodenafil]
5.44 min | CON=C(C(=O)NC1C(=O)N2C(C(=O)O)=C(CSC(=O)c3ccco3)CSC12)c1csc(N)n1 (centres undefined) [Ceftiofur]
6.46 min | NC(=O)N1c2ccccc2CC(=O)c2ccccc21 [Oxcarbazepine]
7.89 min | Cc1ccc(C(=O)c2ccc(CC(=O)O)n2C)cc1 [Tolmetin]
7.54 min | CNCCOC(c1ccccc1)c1ccccc1C (centres undefined) [Orphenadrine-Nor (Tofenacin. Elamol)]

LC retention time | SMILES
3.53 min | CN1CCN(C)C1=O [Imidazolidinon- 1-3-Dimethyl-2-]
8.65 min | COC(=O)Nc1nc2ccc(C(=O)c3ccc(F)cc3)cc2[nH]1 [Flubendazole]
11.1 min | CC#CC1(O)CCC2C3CCC4=CC(=O)CCC4=C3C(c3ccc(N(C)C)cc3)CC21C (centres undefined) [Mifepristone]
5.73 min | CC(C)Nc1nc(N)nc(Cl)n1 [Atrazine-desethyl]
7.14 min | CCCc1nn(C)c2c(=O)[nH]c(-c3cc(C(=O)CN4CCCCC4)ccc3OCC)nc12 [Piperiacetildenafil]
9.01 min | CCCc1nn(C)c2c(=O)[nH]c(-c3cc(S(=O)(=O)N4CCN(C5CCCC5)CC4)ccc3OCC)nc12 [Cyclopentynafil]
10.3 min | COC(=O)C1=C(C#N)NC(C)=C(C(=O)OC(C)C)C1c1cccc([N+](=O)[O-])c1 (centres undefined) [Nilvadipine]
2.61 min | Cn1cc[nH]c1=S [Methimazole]
5.99 min | CN1CCC(=C2c3ccccc3CCc3cccnc32)CC1 [Azatadine]
4.54 min | Cc1cc(NS(=O)(=O)c2ccc(NO)cc2)no1 [Sulfamethoxazole hydroxylamine]
7.03 min | CNCCC=C1c2ccccc2COc2ccccc21 [Doxepin-Nor]
11.6 min | CC(C)(C)CC(C)(C)c1ccc(OCCOCC[N+](C)(C)Cc2ccccc2)cc1 [Benzethonium]
7.07 min | Cc1ccc(Cl)c(OCC(O)CNC(C)(C)C)c1 (centres undefined) [Bupranolol]
6.2 min | CC1c2cccc(O)c2C(O)=C2C(=O)C3(O)C(O)=C(C(N)=O)C(=O)C(N(C)C)C3C(O)C21 (centres undefined) [Doxycycline]
5.44 min | O=S(=O)(O)c1ccc2ccccc2c1 [2-Naphthalin sulfonic acid]
6.34 min | COc1ccc(C(CN)C2(O)CCCCC2)cc1 [Venlafaxine- D L-N N-Didesmethyl]
8.12 min | CCCCOCCOCCSC#N [Lethane 384]
3.88 min | On1nnc2ccccc21 [Benzotriazole-1-Hydroxy]
8 min | CCC1OC(=O)C(C)C(OC2CC(C)(OC)C(O)C(C)O2)C(C)C(OC2OC(C)CC(N(C)C)C2O)C(C)(O)CC(C)C(=O)C(C)C(O)C1(C)O (centres undefined) [Erythromycin]
5.45 min | Nc1ccc(S(=O)(=O)Nc2cncc(Cl)n2)cc1 [Sulfaclozine]
9.37 min | CC(=O)OCC(=O)C1(O)C(C)CC2C3CCC4=CC(=O)C=CC4(C)C3(F)C(O)CC21C (centres undefined) [Betamethasone acetate]

The next lines start with the molecule.

SMILES | LC retention time
CCC(=O)C1(c2cccc(O)c2)CCN(C)CC1 [Ketobemidone] | 4.26 min
COc1ccc(CC(C)N)cc1 (centres undefined) [PMA] | 4.34 min
COc1cc(OC)n2nc(S(=O)(=O)Nc3c(Cl)ccc(C)c3Cl)nc2n1 [Metosulam] | 7.1 min
COCC(C)N(C(=O)CCl)c1c(C)csc1C (centres undefined) [Dimethenamide] | 9.26 min
CCN(C(C)=O)c1cccc(-c2ccnc3c(C#N)cnn23)c1 [Zaleplon] | 6.61 min
CCN(CC)C(=O)C(C)Oc1cccc2ccccc12 (centres undefined) [Napropamide] | 10.2 min
CC#Cc1cc(C)nc(Nc2ccccc2)n1 [Mepanipyrim] | 10.2 min
CC(C)c1ccc(NC(=O)N(C)C)cc1 [Isoproturon] | 8.32 min
CCOP(=S)(OCC)Oc1cc(C)nc(C(C)C)n1 [Diazinon] | 11 min
CC(C)CC(N(C)C)C1(c2ccc(Cl)cc2)CCC1 (centres undefined) [Sibutramine] | 8.66 min
CC1COC(Cn2cncn2)(c2ccc(Oc3ccc(Cl)cc3)cc2Cl)O1 (centres undefined) [Difenoconazole] | 11.6 min
Cc1occc1C(=O)Nc1ccccc1 [Fenfuram] | 7.59 min
CCOC1OC(C(=O)O)C(O)C(O)C1O (centres undefined) [EtG (Na)] | 1.52 min
CCC(=C(c1ccc(O)cc1)c1ccc(OCCN(C)C)cc1)c1ccccc1 [4-Hydroxytamoxifen] | 9.1 min
Cc1ccc(NC(=O)N(C)C)cc1Cl [Chlorotoluron] | 7.98 min
CCCN(CCC)C(=O)SCc1ccccc1 [Prosulfocarb] | 11.9 min
O=C(Oc1cccc2cccnc12)c1cn(CCCCCF)c2ccccc12 [PB-22-5F] | 10.7 min
CN1C(=O)CN=C(c2ccccc2)c2cc(Cl)ccc21 [Diazepam] | 9.53 min
CCCCCn1cc(C(=O)c2cccc3ccccc23)cc1-c1cccc(F)c1 [JWH-368] | 13 min
C=CC=CCC1=C(C)C(OC(=O)C2C(C=C(C)C)C2(C)C)CC1=O (centres undefined) [Pyrethrin I] | 12.9 min
CCCCn1cc(C(=O)c2cccc3ccccc23)c2cc(O)ccc21 [JWH-073-M-5-OH-Ind] | 11.3 min

SMILES | LC retention time
CCOC(=O)c1ccccc1S(=O)(=O)NC(=O)Nc1nc(Cl)cc(OC)n1 [Chlorimuronethyl] | 9.3 min
CCC(C)C1OC2(C=CC1C)CC1CC(CC=C(C)C(OC3CC(OC)C(OC4CC(OC)C(O)C(C)O4)C(C)O3)C(C)C=CC=C3COC4C(O)C(C)=CC(C(=O)O1)C34O)O2 (centres undefined) [AvermectinB1a (Abamectin)] | 13.6 min
CCCCn1cc(C(=O)c2cccc3ccccc23)c2c(O)cccc21 [JWH-073-M-4-OH-Ind] | 12 min
C=CCC1(C(C)C#CCC)C(=O)NC(=O)N(C)C1=O (centres undefined) [Methohexital] | 9.09 min
CNC(C)C(=O)c1ccc(C)c(C)c1 (centres undefined) [DMMC (3-4-)] | 5.23 min
CNC(C)C(=O)c1ccc(Br)cc1 (centres undefined) [Brefedrone] | 5.05 min
CCC=CCC1=C(C)C(OC(=O)C2C(C=C(C)C(=O)OC)C2(C)C)CC1=O (centres undefined) [Pyrethrins: Jasmolin II] | 12.2 min
O=C1CN=C(c2ccccc2)c2cc(Cl)ccc2N1CC1CC1 [Prazepam] | 10.6 min
CNC(=N[N+](=O)[O-])NCc1cnc(Cl)s1 [Clothiandin] | 4.9 min
CCOc1ccc(C(C)(C)COCc2cccc(Oc3ccccc3)c2)cc1 [Etofenprox] | 14.1 min
CC(C)N1C(=O)N(c2ccccc2)CSC1=NC(C)(C)C [Buprofezin  (Z-isomer. Buprofexin)] | 12.2 min
CCCC(NC)C(=O)c1ccc2c(c1)OCO2 (centres undefined) [Pentylone] | 4.99 min
CCCCNC(=O)OCC#CI [3-Iodopropynyl butylcarbamate] | 8.05 min
Cc1ccc(-c2c(Cl)nc(C#N)n2S(=O)(=O)N(C)C)cc1 [Cyazofamid] | 10.3 min
CN(C)CCC=C1c2ccccc2C=Cc2ccccc21 [Cyclobenzaprine] | 7.95 min
Cc1nnc(-c2ccccc2)c(=O)n1N [Metamitron] | 5.24 min
c1ccc(C(c2ccccc2)C2CCCCN2)cc1 (centres undefined) [Desoxypipradol] | 6.3 min
COC(=O)C(NC(=O)c1nn(CC2CCCCC2)c2ccccc12)C(C)(C)C (centres undefined) [MDMB-CHMINACA (MDMB-CHMICA)] | 12.9 min
CC(COc1ccc(Oc2ccccc2)cc1)Oc1ccccn1 (centres undefined) [Pyriproxyfen] | 12.6 min
CCCCCn1cc(C(=O)NCc2ccccc2)c2ccccc21 [SDB-006] | 11.2 min
